Data as given in US20080070885.
Like-named read-outs stand apart in the source and are kept apart here.

Row | SMILES | ring closure, yield of all isomers (from C=CCCS(=O)(=O)C[C@@H](C)C(=O)N[C@@H](Cc1cccc(CC=C)c1)[C@@H]1C[C@@H](C)C(=O)O1, rcm bond, benzylidene(1,3-dimesitylimidazolidin-2-ylidene)(tricyclohexylphosphine)ruthenium dichloride (Grubbs II), dichloromethane, 60.0 °C, 2.5 h) | ring closure, yield of all isomers (from CCCCNC(=O)[C@H](C)C[C@H](O)[C@H](Cc1cccc(OCCCCC(=O)O)c1)NC(=O)[C@H](C)N, amide bond, BOP, diisopropylethylamine, DMF, 7.1 mM, 25.0 °C, 16.0 h)
1 | C[C@@H]1CS(=O)(=O)CCC=CCc2cccc(c2)C[C@@H]([C@@H]2C[C@@H](C)C(=O)O2)NC1=O | 74.7% | 
2 | CCCCNC(=O)[C@H](C)C[C@H](O)[C@@H]1Cc2cccc(c2)OCCCCC(=O)N[C@@H](C)C(=O)N1 (relative stereo) |  | 1.7%
